Data set [1] concerns the target T1, adenylosuccinate synthase (Oryctolagus cuniculus, UniProt G1TGN8).
T1 sequence (G1TGN8 with tags, fused parts or gaps): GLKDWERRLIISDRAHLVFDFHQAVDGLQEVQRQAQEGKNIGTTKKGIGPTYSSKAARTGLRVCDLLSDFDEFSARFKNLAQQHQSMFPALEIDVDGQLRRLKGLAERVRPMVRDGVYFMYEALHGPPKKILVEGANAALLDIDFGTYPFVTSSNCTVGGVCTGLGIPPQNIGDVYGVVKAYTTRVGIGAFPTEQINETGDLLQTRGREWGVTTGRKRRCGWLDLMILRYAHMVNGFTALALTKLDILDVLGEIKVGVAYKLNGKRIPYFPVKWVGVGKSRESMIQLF
The experiment in a line: adenylosuccinate synthase inhibition (change of absorbance at 285 nm with time). The data set is classed as biochemical. From the text:
As existing adenylosuccinate synthase inhibitors, hydantocidin-5'-monophosphate and hadacidin were chosen and compared for their level of enzyme inhibitory activity. Hydantocidin-5'-monophosphate was synthesized by debenzylating an intermediate synthesized by the method of Mio et al. (Tetrahedron, 47, 2133-2144, 1991), [2R, 3R, 4R, 5S]-6-N-acetyl-2-benzyloxymethyl-3,4-isopropylidene-1-oxa-6,8-diazaspiro[4,4]nonane-7,9-dione (Compound 24) and then converting it into its diphenyl phosphate ester, followed by deacetonidation, deacetylation and dephenylation by catalytic reduction. Hadacidin was synthesized by the method of Jahngen-Rossomand (Synth. Commun. 12, 601-606, 1982). Adenylosuccinate synthase was purified from rabbit muscles by the method of Fischer et al. (Methods in Enzymol. LI, 207-213). Each inhibitor (hydantocidin-5'-monophosphate or hadacidin at a final concentration of 1µM-1mM) (10 µl) and a substrate solution (50 mM HEPES, pH 7.3, 1 mM MgCl2, 0.2 mM GTP, 0.2 mM IMP, 2.5 mM Asp [each final concentration]) (60 µl) were added to adenylosuccinate synthase (10 µl) added dropwise into a microspectroscopic cell, and mixed together, then the microspectroscopic cell was immediately set in a spectrophotometer BECKMAN DU650 (Beckman) to determine change of absorbance at 285 nm with time for a period of 2 to 5 minutes after the reaction was started.

The subject of data set [2] is Raji cells having MTAP activity. The experiment in a line: cell growth, MTT method. It counts as cell-based, human. On the procedure: (§1) CCRF-CEM cells lacking MTAP activity and Raji cells having MTAP activity suspended in a modified MEM Zn^++ medium (GIBCO BRL) containing 10% dialyzed horse serum (GIBCO BRL) pretreated at 56°C for 30 minutes were plated on 96-well microplates at concentrations of 1.5 x 10^5 cells/ml and 5 x 10^4 cells/ml, respectively, and adenylosuccinate synthase inhibitors (hydantocidin-5'-monophosphate and hadacidin at a final concentration of 1 µM-1mM) were added to 100 µl/well in the presence or absence of a substrate for MTAP, MTA (final concentration 10 µM). After incubation in the presence of 5% CO2 at 37°C for 2 days, the survival cell number was counted by the MTT method (J. Immunol. Methods, 65, 55-63, 1983) (using Cell Titer 96® Aqueous Non-Radioactive Cell Proliferation Assay [Promega]) to assess effects on cell growth.
For orientation: Tetrazolium dyes change colour on reduction, which living cells bring about.

Data set [3] relates to CCRF-CEM cells lacking MTAP activity. The experiment in a line: cell growth, MTT method. The data set is classed as cell-based, human. On the procedure:
as §1

Data set [4] has as its system human pancreatic cancer cell line BxPC-3. The experiment in a line: cell growth, [3H] thymidine uptake. It counts as cell-based. Conditions: 3 days incubation; [3H] thymidine uptake for 5 hours; Fig. 5B. On the procedure:
(§2) Cell extracts were reacted with [8-^14C] MTA, a substrate for MTAP, and the reaction solutions were partially developed by thin-layer chromatography to visualize spots corresponding to [^14C] adenine produced by the action of MTAP in the presence of [8-^14C] […] The same experiment was performed as for Raji cells in Fig. 3 except that incubation was performed for 3 days. […] The same experiment was performed as for Raji cells in Fig. 3 except that incubation was performed for 3 days and that [^3H] thymidine uptake for 5 hours was assayed. […]
as §1

Data set [5] deals with human non-small cell lung cancer cell line A549. The experiment in a line: cell growth, [3H] thymidine uptake. The data set is classed as cell-based. Conditions: 3 days incubation; [3H] thymidine uptake for 5 hours; Fig. 5A. The protocol:
as §2, §1

In data set [6] the test system is human glioma cell line A-172 lacking MTAP activity. The experiment in a line: cell growth, MTT method, 3 days incubation. The following applies: Fig. 4A. The data set is classed as cell-based. On the procedure: as §2, §1
Data set [7] relates to human glioma cell line T98G having MTAP activity. Nature of the data set: cell growth, MTT method, 3 days incubation. The data set is classed as cell-based. Conditions: Fig. 4B. On the procedure: as §2, §1
Setting [8] is: absence of MTA, compared with CCRF-CEM in presence of MTA, 2 days.

Structures are written as SMILES. Read-outs that look alike come from different tables or passages of the source.

With `O=CN(O)CC(=O)O` [hadacidin], the IC50 – broadly, the concentration that inhibits the measured activity by half – in data set [1] (enzyme purified from rabbit muscles; 0.2 mM GTP, 0.2 mM IMP, 2.5 mM Asp, pH 7.3; read-out: IC50 (inhibited adenylosuccinate synthase activity)) is 10 µM.

Take `O=C1NC(=O)[C@@]2(N1)O[C@H](COP(=O)(O)O)[C@@H](O)[C@H]2O` [hydantocidin-5'-monophosphate]: the IC50 in data set [1] (read-out: IC50 (inhibited adenylosuccinate synthase activity); enzyme purified from rabbit muscles; 0.2 mM GTP, 0.2 mM IMP, 2.5 mM Asp, pH 7.3) was found to be 0.03 µM; in data set [3] (Homo sapiens, CCRF-CEM, 48 h, read-out: IC50 (cytotoxicity)), 30 µM. Also, in data set [2] (MTA added (final concentration 10 µM), 2 days incubation), the cytotoxicity result is listed as “did not show cytotoxicity”. In addition, the “level of cytotoxicity in the absence of MTA” value in data set [2] (setting [8]) and in data set [3] (setting [8]) was “comparable” in each case. The growth inhibitory effects entry in data set [4] and in data set [5] was “showed growth inhibitory effects” in each case. Besides, the toxicity entry in data set [6] and in data set [7] was “showed selective toxicity” in each case.

The record behind these values is patent EP0974362A1, “DRUGS CONTAINING ENZYME INHIBITORS AS THE ACTIVE INGREDIENT” (CHUGAI SEIYAKU KABUSHIKI KAISHA, priority 1997, dated 1998).
